The text below walks through data of patent US6632981B1, “DNA sequences encoding polypeptides having beta-1,3-glucanase activity” (Novartis Finance Corporation, priority 1988, dated 2003).

The test system of assay [1] is chimeric PR-1a/GUS gene. The assay can be described thus: GUS induction in transformed tobacco callus. In kind it is cell-based, Nicotiana tabacum. How it is done: Agrobacterium strains containing the appropriate vectors are used to transform callus forming from the leaf disks (Example 112). Callus forming on kanamycin-containing MSBN selection medium is maintained on a callus growth medium comprised of MS major, minor salts and Fe-EDTA (Gibco #500-1117; 4.3 g/l), MS vitamins, 100 mg/l myo-inositol, 20 g/l sucrose, 2 mg/l naphthaleneacetic acid and 0.3 mg/l kinetin.
The callus can be used to regenerate transgenic plants by transferring callus pieces to MSBN medium and following methods described in Examples 111 and 112. The callus is also used to measure gene induction following application of inducing chemicals and to screen for gene inducing chemicals.
A. Callus obtained according to previously described procedures is assayed for chemical induction by applying with a sterile paint brush or a plant mister a filter sterilized solution of 0.1 to 50 mM salicylic acid which has been adjusted to a pH between 6.0 and 8.0 by the addition of NaOH. […]
(3) Methyl benzo-1,2,3-thiadiazole-7-carboxylate. The solution is made by resuspending a wettable powder containing the chemical in sterile water for several minutes at a concentration of 1 mg/ml. Insoluble solid is removed from the solution by filter sterilizing.
Frozen leaf tissue is ground in a mortar with a pestle in the presence of liquid nitrogen to produce a fine powder. […]
The reactions are carried out in the wells of ELISA plates by mixing 5-25 l extract with 120-100 l GUS assay buffer (50 mM sodium phosphate buffer pH 7.0, 0.1% Triton X-100, 10 mM β-mercaptoethanol) containing 4-methyl umbelliferyl glucuronide (MU) at a final concentration of 2 mM in a total volume of 125 l. […] The concentration of fluorescent indicator released is determined by reading the plate on a Flow Labs Fluoroskan II ELISA plate reader. […]

For assay [2], the system named is chimeric PR-1a/GUS gene. Kind of assay: GUS induction in transformed carrot callus. The settings on record: carrot callus transformed by pCIB271; 50 mM sodium salicylate or 250 g/l methyl ester spray; 21 hours; H2O spray 5.2. In kind it is cell-based. How it is done:
To surface sterilize the carrots they are peeled and then soaked 20 minutes in a 10% solution of chlorox. The carrots are rinsed with sterile water, sliced into 5 mm pieces and placed basal side up onto water agar. 20-50 l of bacteria are then applied to the upper surface of the discs. After 7 days the discs are transferred to 0.7% agar containing MS salts, 3% sucrose, 0.1 mg/l 2,4-D, […] kanamycin, 100 µg/ml carbenicillin, and 100 µg/ml mefoxin. Callus forming around the cambial ring is excised and placed on 0.7% MS agar supplemented with 3% sucrose, 0.1 mg/l 2,4-D, […] kanamycin, 100 µg/ml carbenicillin, and 100 µg/ml mefoxin. After the callus has been grown it is cut into small pieces and randomized onto four plates of the same media. […]
The reactions are carried out in the wells of ELISA plates by mixing 5-25 l extract with 120-100 l GUS assay buffer (50 mM sodium phosphate buffer pH 7.0, 0.1% Triton X-100, 10 mM β-mercaptoethanol) containing 4-methyl umbelliferyl glucuronide (MU) at a final concentration of 2 mM in a total volume of 125 l. […] The concentration of fluorescent indicator released is determined by reading the plate on a Flow Labs Fluoroskan II ELISA plate reader.

Another assay deals with endogenous PR-1a gene. The assay can be described thus: Assay for chemical induction of the endogenous PR-1a gene (mRNA, primer extension). Type of assay: in vivo. The settings on record: tobacco plant materials, control procedure. How it is done:
50 g of total RNA is lyophilized in a 500 l Eppendorf tube. The RNA is resuspended in 30 l of radiolabeled probe solution and heated to 70′ C. for 10 minutes. The tube is slowly cooled to 37° C. and allowed to incubate overnight. Without removing the tube from the 37° C. water bath, 2 l of 10×reverse-transcriptase buffer (500 mM Tris-HCl, pH 7.5, 400 mM KCl, 30 mM MgCl2), 1 l 5 mg/ml bovine serum albumin, 5 l 100 mM dithiothreitol, 5 l 10×dNTPs (10 mM of each dNTP in H2O), 3 l H 20, 2 l RNasin (80 units), and 2 l reverse transcriptase (400 units) are added and the reaction is incubated at 37° C. for 30 minutes. To stop the reaction, 5 l of 3 M sodium acetate, pH 5, and 150 l absolute ethanol are added. The tube is left at −20° C. for 30 minutes, the precipitate is collected by centrifugation, washed with 80% ethanol and allowed to air-dry. The precipitate is resuspended in 10-20 l of loading dye (90% formamide, 0.05% bromophenol blue, 0.05% xylene cyanol, 1 mM EDTA) and the extension products are separated on a 6% sequencing gel (Maniatis, T. et al., supra). Extension products are visualized by autoradiography.
As a control procedure, tobacco plant materials induced as described in Examples 139-141 by salicylic acid, methyl benzo-1,2,3-thiadiazole-7-carboxylate and TMV are assayed for transcription of mRNA from the endogenous PR-1a gene by the methods described in Example 6.

`COC(=O)c1cccc2nnsc12` [Methyl benzo-1,2,3-thiadiazole-7-carboxylate]: the GUS activities in the assay on chimeric PR-1a/GUS gene [1] (tobacco callus transformed with CIB271 (different experiment), 250 g/l spray, 21 hours, H2O spray 2.8) is on record as 13.7 nKat MU/mg protein; with chimeric PR-1a/GUS gene [1] (tobacco callus transformed with CIB273, 250 g/l spray, 21 hours, H2O spray 0.46), 31.2 nKat MU/mg protein; with chimeric PR-1a/GUS gene [2], 22.1 pKat MU/mg protein. Also, the “transcription of mRNA from the endogenous PR-1a gene” value in the assay on endogenous PR-1a gene is listed as “Elevated levels of mRNA”.

On to `O=C(O)c1ccccc1O` [Salicylic acid, salicylic acid], for which the GUS activities in the assay with chimeric PR-1a/GUS gene [1] (tobacco callus transformed with CIB271, 50 mM spray, harvested 21 hours after treatment, H2O spray 1.8) turned out to be 3.8 nKat MU/mg protein; with chimeric PR-1a/GUS gene [2], 11.6 pKat MU/mg protein. For the same compound, in the assay with endogenous PR-1a gene, the “transcription of mRNA from the endogenous PR-1a gene” value was “Elevated levels of mRNA”.
